According to US20210177824A1, “EXTENDED RELEASE FORMULATIONS FOR INTRA-ARTICULAR APPLICATIONS” (NOVARTIS AG, priority 2017, published 2021):

How the values were obtained:
Type in all cases: physicochemical
[1] = Aqueous solubility of Compound A as a function of pH
Excerpt: (§1) Compound A can be formulated as immediate release formulations for intra-articular injection. However, due to a high fluid exchange between the synovial fluid and the blood stream, immediate release formulations have a short synovial residence half-life and require frequent injections.

[2] = pKa of Compound A; conditions: weakly basic
Excerpt: as §1

[3] = Particle size and surface area of micronized Compound A micro-crystals
Excerpt: Compound A can be micronized using any methods known to those skilled in the art. Un-milled Compound A is subjected to a size reduction process to obtain particle size. The size reduction of Compound A can be performed using any known methods such as by jet-milling technology, and more particularly, by spiral jet-milling technology, fluidized bed opposed jet-milling technology or loop jet-milling technology.
In yet other embodiments, Compound A was micronized to form micro-crystals with maximal particle diameters characterized in Table 1.

pH dependence of solubility [1]: Solubility increases with decreasing pH
Solubility in neutral pH and basic pH aqueous solutions ([1]; neutral and basic pH): poorly soluble
pKa [2]: 5.2
Particle size: D10 [3]: ≤1.4 μm
Particle size: D50 [3]: ≤6.1 μm
Particle size: D90 [3]: ≤29.7 μm
Surface area [3]: 3 m^2/g
SMILES: O=C(Nc1ccc(Cl)c(Cl)c1)[C@@H]1[C@@H](c2ccncc2)[C@@H]2CC[C@H]1O2 [Compound A, N-(3,4-dichlorophenyl)-3-(pyridin-4-yl)-7-oxabicyclo[2.2.1] heptane-2-carboxamide]
